Experimental data as given in US10550135B2, “Silicon incorporated quinolines with anti-malarial and anti-toxoplasmosis activity” (Council of Scientific & Industrial Research, priority 2016, dated 2020).

Columns and labels:
[1] = tested on: Plasmodium falciparum (3D7); experiment: Anti-malarial screening, P. falciparum 3D7 growth in human RBC culture, SybrGreen fluorescence; format: cell-based; conditions: for inhibition at 10 µM: primary screen, 3D7, 60 hours; for EC50: dose response, 10 μM to 1 nM dilution series, 3D7
Experimental: (§1) • a) Anti-malarial screening: Plasmodium falciparum (3D7; Malaria Research and Reference Reagent Resource Center ID NO: MRA-102) is cultured in the laboratory as per standard protocols [Moll et. al. 2008]. Briefly, P. falciparum is cultured using 2% hematocrit washed RBCs, separated from freshly collected human blood, in RPMI media containing glutamine, sodium bicarbonate and antibiotics. Parasites are routinely synchronized using 5% sorbitol treatment. Anti-malarial screens are carried out in two stages: 1) a primary screen at a fixed concentration of 10 μM to find out % inhibition of growth; and 2) a dose assay for finding out the IC50 of hits identified from the primary screen. In both assays the following steps are followed. 200 μL's of the diluted parasite culture (2% parasitemia and 2% hematocrit; at late ring stage), is added to each well in a 96 well plate pre-seeded with the compound of interest at the required concentration of 10 μM. The master stocks and dilutions of the compounds are prepared in cell culture grade DMSO. NOTE: DMSO only treatment control is done and the results are used for normalizing the data obtained from compound treatment. All compounds are plated in triplicates. Each 96 well plate also includes negative control (compound untreated culture) and positive control (standard anti-malarial treated culture). Standard anti-malarials used are chloroquine, artemisinine and atovaquone, each at 1 μM concentration. After plating, the culture is incubated in standard growth condition for 60 hours, after which the cultures are processed for testing the effect of compounds on parasite growth using SybrGreen staining and fluorescence measurements at 520 nm emission following excitation at 498 nm. Since only the parasites have DNA (as RBCs are devoid of nucleus), the SybrGreen signal is a direct indictor of parasite density in respective samples. Results are used to quantifying relative parasite growth (or conversely % inhibition of growth) in untreated, standard anti-malarial treated and test molecules treated P. falciparum cultures. Compounds showing greater than 80% reduction in parasitemia are selected from this primary screening for carrying out dose response analysis using the respective test molecules from 10 μM to 1 nM dilution series. Data from this experiment is used for the calculation of IC50 values for the respective test molecules. • b) Anti-toxoplasma screening: For screening bioactivity of test molecules against T. gondii, a transgenic line of the parasite expressing the luciferase gene is used. The parental parasite used to generate the TgLuc+ strain is a Type I (RH) virulent strain (ATCC reference 50174D), which can also be used for in vivo studies in mice, if needed. The tachyzoite stage of the parasites are routinely cultured in the laboratory using standard protocols [Roos et al., 1994. In brief, a confluent monolayer of Human Foreskin Fibroblast (HFF; ATCC reference SCRS-1041) cells in culture are used as the host cells for infection with tachyzoite stage T. gondii. The culture media used to grow parasites is standard complete DMEM (Gibco BRL, USA) containing glucose (5.5 mM), glutamine (2 mM), Hepes (25 mM) and 1% dialyzed bovine fetal calf serum (Gibco BRL, USA). For bioactivity assays, the HFF cells are grown in 96 well plates and each well is infected with 1×10^4 TgLuc+ parasitesin the presence of 10 μM of test molecules (in primary screens) in a total volume of 200 μL. After 2 days of incubation and growth in a 37° C. incubator maintaining 5% CO2, the 96 well plates are processed for luminescence measurements using the reagents in the luciferase assay kit (Promega, USA). […]

[2] = tested on: T. gondii; experiment: Anti-toxoplasma screening, luciferase-expressing T. gondii (TgLuc+) in HFF cells, luminescence; format: cell-based; conditions: for inhibition at 10 µM: 48 h, primary screen, TgLuc+ tachyzoites in HFF cells, 2 days
Experimental: as §1

C[Si]1(C)CCN(Cc2ccc(-c3cc(C(=O)NCCN4CCCCC4)c4cc(F)ccc4n3)cc2)CC1 [NDS 101074, 2-(4-((4,4-dimethyl-1,4-azasilinan-1-yl)methyl)phenyl)-6-fluoro-N-(2-(piperidin-1-yl)ethyl)quinoline-4-carboxamide]
inhibition at 10 µM [1]: 78.8% | EC50 [1]: 0.112 µM

C[Si]1(C)CCN(Cc2ccc(-c3cc(C(=O)NCCN4CCOCC4)c4cc(F)ccc4n3)cc2)CC1 [NDS 101008, 2-(4-((4,4-dimethyl-1,4-azasilinan-1-yl)methyl)phenyl)-6-fluoro-N-(2-morpholinoethyl)quinoline-4-carboxamide]
inhibition at 10 µM [1]: 95.9% | EC50 [1]: 1.26 µM | inhibition at 10 µM [2]: 3%

C[Si](C)(C)CCNC(=O)c1cc(-c2ccc(CN3CCOCC3)cc2)nc2ccc(F)cc12 [NDS 101037, 6-fluoro-2-(4-(morpholinomethyl)phenyl)-N-(2-(trimethylsilyl)ethyl)quinoline-4-carboxamide]
inhibition at 10 µM [1]: 9.16% | inhibition at 10 µM [2]: 45%

C[Si]1(C)CCN(Cc2ccc(-c3cc(C(=O)Nc4ccccn4)c4cc(F)ccc4n3)cc2)CC1 [NDS 101009, 2-(4-((4,4-dimethyl-1,4-azasilinan-1-yl)methyl)phenyl)-6-fluoro-N-(pyridin-2-yl)quinoline-4-carboxamide]
inhibition at 10 µM [1]: 97.1% | EC50 [1]: 0.81 µM | inhibition at 10 µM [2]: 31%

C[Si]1(C)CCN(Cc2ccc(-c3cc(C(=O)NCCO)c4cc(F)ccc4n3)cc2)CC1 [NDS 101076, 2-(4-((4,4-dimethyl-1,4-azasilinan-1-yl)methyl)phenyl)-6-fluoro-N-(2-hydroxyethyl)quinoline-4-carboxamide]
inhibition at 10 µM [1]: 81.4% | EC50 [1]: 6.12 µM

C[Si]1(C)CCN(Cc2ccc(-c3cc(C(=O)N4CCOCC4)c4cc(F)ccc4n3)cc2)CC1 [NDS 101007, (2-(4-((4,4-dimethyl-1,4-azasilinan-1-yl)methyl)phenyl)-6-fluoroquinolin-4-yl)(morpholino)methanone]
inhibition at 10 µM [1]: 2.79% | inhibition at 10 µM [2]: 3%

C[Si]1(C)CCN(Cc2ccc(-c3cc(C(=O)NCCN4CCCC4)c4cc(F)ccc4n3)cc2)CC1 [NDS 100950, 2-(4-((4,4-dimethyl-1,4-azasilinan-1-yl)methyl)phenyl)-6-fluoro-N-(2-(pyrrolidin-1-yl)ethyl)quinoline-4-carboxamide]
inhibition at 10 µM [1]: 95.7% | EC50 [1]: 0.06 µM | inhibition at 10 µM [2]: 95.2% | EC50 ([2]; HFF, dose response, 10 μM to 1 nM dilution series): 3.94 µM

C[Si]1(C)CCN(Cc2ccc(-c3cc(C(=O)NCCN4CCSCC4)c4cc(F)ccc4n3)cc2)CC1 [NDS 101077, 2-(4-((4,4-dimethyl-1,4-azasilinan-1-yl)methyl)phenyl)-6-fluoro-N-(2-thiomorpholinoethyl)quinoline-4-carboxamide]
inhibition at 10 µM [1]: 95.5% | EC50 [1]: 0.95 µM

C[Si]1(C)CCN(C(=O)c2cc(-c3ccc(CN4CCOCC4)cc3)nc3ccc(F)cc23)CC1 [NDS 101006, (4,4-dimethyl-1,4-azasilinan-1-yl)(6-fluoro-2-(4-(morpholinomethyl)phenyl)quinolin-4-yl)methanone]
inhibition at 10 µM [1]: 1.87% | inhibition at 10 µM [2]: 0%

C[Si]1(C)CCN(CCNC(=O)c2cc(-c3ccc(CN4CCOCC4)cc3)nc3ccc(F)cc23)CC1 [NDS 100951, N-(2-(4,4-dimethyl-1,4-azasilinan-1-yl)ethyl)-6-fluoro-2-(4-(morpholinomethyl)phenyl)quinoline-4-carboxamide]
inhibition at 10 µM [1]: 93.6% | EC50 [1]: 0.05 µM | inhibition at 10 µM [2]: 21.8%

CN1CCN(CCNC(=O)c2cc(-c3ccc(CN4CC[Si](C)(C)CC4)cc3)nc3ccc(F)cc23)CC1 [NDS 101075, 2-(4-((4,4-dimethyl-1,4-azasilinan-1-yl)methyl)phenyl)-6-fluoro-N-(2-(4-methylpiperazin-1-yl)ethyl)quinoline-4-carboxamide]
inhibition at 10 µM [1]: 95.2% | EC50 [1]: 0.403 µM
